ChEMBL document CHEMBL1201862, “PubChem BioAssay data set” (2004)
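Cells were grown in 96-well plates and exposed to each compound for 48 hours at five concentrations; endpoints were interpolated linearly between bracketing concentrations, or set to the highest concentration if not reached. GI50 = concentration required for 50% inhibition of growth.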 The source made the active and inactive calls. Rule as the data show it: active = GI50 up to about 1.1 µM and inactive = higher.

Columns and labels:
Test in all cases: NCI tumour cell line growth inhibition, 48 h
NCI-H226 = tested on: NCI-H226
HCC 2998 = tested on: HCC 2998
U-251 = tested on: U-251
MDA-MB-231 = tested on: MDA-MB-231
IGROV-1 = tested on: IGROV-1
MDA-MB-435 = tested on: MDA-MB-435
NCI-H460 = tested on: NCI-H460
CAKI-1 = tested on: CAKI-1
SNB-75 = tested on: SNB-75
CCRF-CEM = tested on: CCRF-CEM
SF-268 = tested on: SF-268
SW-620 = tested on: SW-620
HCT-116 = tested on: HCT-116
786-0 = tested on: 786-0
MOLT-4 = tested on: MOLT-4
NCI-H23 = tested on: NCI-H23
OVCAR-4 = tested on: OVCAR-4
MDA-N = tested on: MDA-N
OVCAR-3 = tested on: OVCAR-3
Hs-578T = tested on: Hs-578T
HOP-62 = tested on: HOP-62
OVCAR-8 = tested on: OVCAR-8
HT-29 = tested on: HT-29
NCI/ADR-RES = tested on: NCI/ADR-RES
SK-MEL-2 = tested on: SK-MEL-2
DU-145 = tested on: DU-145
COLO 205 = tested on: COLO 205
T47D = tested on: T47D
UACC-62 = tested on: UACC-62
HL-60 = tested on: HL-60
PC-3 = tested on: PC-3
SNB-19 = tested on: SNB-19
SK-MEL-5 = tested on: SK-MEL-5
LOX IMVI = tested on: LOX IMVI
A498 = tested on: A498
KM12 = tested on: KM12
K562 = tested on: K562
EKVX = tested on: EKVX
HCT-15 = tested on: HCT-15
SN12C = tested on: SN12C
RPMI-8226 = tested on: RPMI-8226
BT-549 = tested on: BT-549
A549 = tested on: A549
RXF 393 = tested on: RXF 393
M14 = tested on: M14
SK-MEL-28 = tested on: SK-MEL-28
TK-10 = tested on: TK-10
SF-539 = tested on: SF-539
MCF7 = tested on: MCF7
UACC-257 = tested on: UACC-257
HOP-92 = tested on: HOP-92
SK-OV-3 = tested on: SK-OV-3
SF-295 = tested on: SF-295
ACHN = tested on: ACHN
NCI-H522 = tested on: NCI-H522
UO-31 = tested on: UO-31
OVCAR-5 = tested on: OVCAR-5
Malme-3M = tested on: Malme-3M
SR = tested on: SR

SMILES: CCCOC(=O)c1cc(C(=CCC[C@H]2CC[C@@]3(C)[C@@H](CC[C@@H]4[C@@H]3CC[C@]3(C)[C@@H](C(C)CCCC(C)C)CC[C@@H]43)C2)c2cc(Cl)c(O)c(C(=O)OCCC)c2)cc(Cl)c1O (stereo partly specified)
- GI50 (NCI-H226): > 50 µM (inactive)
- GI50 (HCC 2998): > 50 µM (inactive)
- GI50 (U-251): > 50 µM (inactive)
- GI50 (MDA-MB-231): > 50 µM (inactive)
- GI50 (IGROV-1): > 50 µM (inactive)
- GI50 (MDA-MB-435): > 50 µM (inactive)
- GI50 (NCI-H460): > 50 µM (inactive)
- GI50 (CAKI-1): > 50 µM (inactive)
- GI50 (SNB-75): > 50 µM (inactive)
- GI50 (CCRF-CEM): > 50 µM (inactive)
- GI50 (SF-268): > 50 µM (inactive)
- GI50 (SW-620): > 50 µM (inactive)
- GI50 (HCT-116): > 50 µM (inactive)
- GI50 (786-0): > 50 µM (inactive)
- GI50 (MOLT-4): > 50 µM (inactive)
- GI50 (NCI-H23): > 50 µM (inactive)
- GI50 (OVCAR-4): > 50 µM (inactive)
- GI50 (MDA-N): > 50 µM (inactive)
- GI50 (OVCAR-3): > 50 µM (inactive)
- GI50 (Hs-578T): > 50 µM (inactive)
- GI50 (HOP-62): > 50 µM (inactive)
- GI50 (OVCAR-8): > 50 µM (inactive)
- GI50 (HT-29): > 50 µM (inactive)
- GI50 (NCI/ADR-RES): > 50 µM (inactive)
- GI50 (SK-MEL-2): > 50 µM (inactive)
- GI50 (DU-145): > 50 µM (inactive)
- GI50 (COLO 205): > 50 µM (inactive)
- GI50 (T47D): > 50 µM (inactive)
- GI50 (UACC-62): > 50 µM (inactive)
- GI50 (HL-60): > 50 µM (inactive)
- GI50 (PC-3): > 50 µM (inactive)
- GI50 (SNB-19): > 50 µM (inactive)
- GI50 (SK-MEL-5): > 50 µM (inactive)
- GI50 (LOX IMVI): > 50 µM (inactive)
- GI50 (A498): > 50 µM (inactive)
- GI50 (KM12): > 50 µM (inactive)
- GI50 (K562): > 5 µM (inactive)
- GI50 (EKVX): > 50 µM (inactive)
- GI50 (HCT-15): > 50 µM
- GI50 (SN12C): > 50 µM (inactive)
- GI50 (RPMI-8226): > 50 µM (inactive)
- GI50 (BT-549): > 50 µM (inactive)

SMILES: c1ccc(/N=C2\c3ccccc3CN2c2ccccn2)nc1
- GI50 (A549): > 100 µM (inactive)
- GI50 (NCI-H226): > 100 µM (inactive)
- GI50 (HCC 2998): 37.8 µM (inactive)
- GI50 (RXF 393): > 100 µM (inactive)
- GI50 (U-251): > 100 µM (inactive)
- GI50 (MDA-MB-231): > 100 µM (inactive)
- GI50 (IGROV-1): > 100 µM (inactive)
- GI50 (MDA-MB-435): > 100 µM (inactive)
- GI50 (NCI-H460): 89.3 µM (inactive)
- GI50 (CAKI-1): > 100 µM (inactive)
- GI50 (SNB-75): 94.8 µM (inactive)
- GI50 (SF-268): > 100 µM (inactive)
- GI50 (M14): > 100 µM (inactive)
- GI50 (SW-620): > 100 µM (inactive)
- GI50 (HCT-116): 74.3 µM (inactive)
- GI50 (786-0): > 100 µM (inactive)
- GI50 (SK-MEL-28): > 100 µM (inactive)
- GI50 (MOLT-4): 54.6 µM (inactive)
- GI50 (TK-10): > 100 µM (inactive)
- GI50 (NCI-H23): 71.9 µM (inactive)
- GI50 (OVCAR-4): > 100 µM (inactive)
- GI50 (MDA-N): > 100 µM (inactive)
- GI50 (OVCAR-3): > 100 µM (inactive)
- GI50 (Hs-578T): > 100 µM (inactive)
- GI50 (HOP-62): > 100 µM (inactive)
- GI50 (SF-539): > 100 µM (inactive)
- GI50 (MCF7): 49.9 µM (inactive)
- GI50 (UACC-257): > 100 µM (inactive)
- GI50 (HOP-92): 15.7 µM (inactive)
- GI50 (SK-OV-3): > 100 µM (inactive)
- GI50 (OVCAR-8): > 100 µM (inactive)
- GI50 (HT-29): 34.2 µM (inactive)
- GI50 (SK-MEL-2): > 100 µM (inactive)
- GI50 (DU-145): > 100 µM (inactive)
- GI50 (COLO 205): 58.6 µM (inactive)
- GI50 (SF-295): > 100 µM (inactive)
- GI50 (T47D): 17.5 µM (inactive)
- GI50 (UACC-62): > 100 µM (inactive)
- GI50 (ACHN): > 100 µM (inactive)
- GI50 (NCI-H522): 61.7 µM (inactive)
- GI50 (HL-60): < 0.01 µM (active)
- GI50 (PC-3): 70.1 µM (inactive)
- GI50 (SNB-19): > 100 µM (inactive)
- GI50 (SK-MEL-5): > 100 µM (inactive)
- GI50 (LOX IMVI): 96.2 µM (inactive)
- GI50 (A498): > 100 µM (inactive)
- GI50 (KM12): > 100 µM (inactive)
- GI50 (UO-31): > 100 µM (inactive)
- GI50 (K562): 65 µM (inactive)
- GI50 (EKVX): > 100 µM (inactive)
- GI50 (HCT-15): > 100 µM
- GI50 (SN12C): > 100 µM (inactive)
- GI50 (OVCAR-5): > 100 µM (inactive)
- GI50 (RPMI-8226): 78 µM (inactive)
- GI50 (BT-549): > 100 µM (inactive)

SMILES: Cn1ccc(C(=O)NCCCCCNC(=O)c2ccn(C)c(=O)c2O)c(O)c1=O
- GI50 (A549): > 100 µM (inactive)
- GI50 (NCI-H226): > 100 µM (inactive)
- GI50 (HCC 2998): > 100 µM (inactive)
- GI50 (U-251): > 100 µM (inactive)
- GI50 (MDA-MB-231): > 100 µM (inactive)
- GI50 (MDA-MB-435): > 100 µM (inactive)
- GI50 (NCI-H460): > 100 µM (inactive)
- GI50 (CAKI-1): > 100 µM (inactive)
- GI50 (CCRF-CEM): > 100 µM (inactive)
- GI50 (SF-268): > 100 µM (inactive)
- GI50 (SW-620): > 100 µM (inactive)
- GI50 (HCT-116): > 100 µM (inactive)
- GI50 (Malme-3M): > 100 µM (inactive)
- GI50 (SR): > 100 µM (inactive)
- GI50 (786-0): > 100 µM (inactive)
- GI50 (SK-MEL-28): > 100 µM (inactive)
- GI50 (TK-10): > 100 µM (inactive)
- GI50 (NCI-H23): > 100 µM (inactive)
- GI50 (OVCAR-4): > 100 µM (inactive)
- GI50 (MDA-N): > 100 µM (inactive)
- GI50 (Hs-578T): > 100 µM (inactive)
- GI50 (UACC-257): > 100 µM (inactive)
- GI50 (HOP-92): > 100 µM (inactive)
- GI50 (OVCAR-8): > 100 µM (inactive)
- GI50 (HT-29): > 100 µM (inactive)
- GI50 (NCI/ADR-RES): > 100 µM (inactive)
- GI50 (SK-MEL-2): > 100 µM (inactive)
- GI50 (DU-145): > 100 µM (inactive)
- GI50 (COLO 205): > 100 µM (inactive)
- GI50 (T47D): > 100 µM (inactive)
- GI50 (UACC-62): > 100 µM (inactive)
- GI50 (ACHN): > 100 µM (inactive)
- GI50 (NCI-H522): > 100 µM (inactive)
- GI50 (HL-60): > 100 µM (inactive)
- GI50 (PC-3): > 100 µM (inactive)
- GI50 (SNB-19): > 100 µM (inactive)
- GI50 (SK-MEL-5): > 100 µM (inactive)
- GI50 (LOX IMVI): > 100 µM (inactive)
- GI50 (A498): > 100 µM (inactive)
- GI50 (KM12): > 100 µM (inactive)
- GI50 (UO-31): > 100 µM (inactive)
- GI50 (HCT-15): > 100 µM
- GI50 (SN12C): > 100 µM (inactive)
- GI50 (BT-549): > 100 µM (inactive)
